Assay results published in the supplement of paper PMC10627819.

Legend:
S. aureus DSM 20231 [1] = experiment: Bliss interaction score (quartile over a dose matrix) (fitness difference); higher = more antagonism (negative = synergy)
Outline: (§1)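 Combination data were used to infer fitness under each single drug. Fitness is the OD595 at entry into stationary phase divided by the robust mean of the plate's no-drug wells, with a cap of 1. The Bliss score is the observed minus the expected product fitness, summarised by quartiles over technical, biological and donor/recipient replicates.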

B. subtilis 168 [2] = experiment: as above
Outline: as §1

S. pneumoniae D39V [3] = experiment: as above
Outline: as §1

S. aureus Newman = experiment: as above
Outline: as §1

S. aureus DSM 20231 [4] = experiment: fitness (endpoint OD595 vs no drug) (fraction); higher = more growth
Outline: (§2)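 Volumes were 30 µl per well, or 55 µl for S. pneumoniae, in 384-well plates inoculated at OD595 0.01. Media were TSB, LB Lennox or CY at 37 °C, and OD595 was read every 30 min for 14 h with first-reading background subtraction. Fitness is the ratio of optical density at stationary-phase entry to the robust mean of no-drug controls. That ratio is capped at 1.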

B. subtilis 168 [5] = experiment: as above
Outline: as §2

S. pneumoniae D39V [6] = experiment: as above
Outline: as §2
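For Bliss interaction score (quartile over a dose matrix) in this document: first quartile when negative (synergy) and third quartile when positive (antagonism).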

CCC[C@@H]1C[C@@H](C(=O)N[C@@H]([C@H]2O[C@H](SC)[C@H](O)[C@@H](O)[C@H]2O)[C@@H](C)O)N(C)C1 [Lincomycin] + CN(N=O)C(=O)N[C@@H](C=O)[C@@H](O)[C@H](O)[C@H](O)CO [Streptozotocin]
Details	Bliss interaction score
B. subtilis 168 [2]	-0.0171
S. aureus DSM 20231 [1]	0.0558
S. aureus Newman	0.125
S. pneumoniae D39V [3]	-0.138

fitness
Details	first compound 0.1 µg/mL	first compound 0.2 µg/mL	first compound 0.215 µg/mL	first compound 0.4 µg/mL	first compound 0.43 µg/mL	first compound 0.86 µg/mL
B. subtilis 168 [5], partner 0.15 µg/mL	0.957	0.99	–	0.994	–	–
B. subtilis 168 [5], partner 0.3 µg/mL	0.966	0.93	–	0.997	–	–
B. subtilis 168 [5], partner 0.6 µg/mL	0.956	0.953	–	0.99	–	–
S. aureus DSM 20231 [4], partner 0.15 µg/mL	0.804	0.635	–	0.282	–	–
S. aureus DSM 20231 [4], partner 0.3 µg/mL	0.796	0.611	–	0.267	–	–
S. aureus DSM 20231 [4], partner 0.6 µg/mL	0.708	0.565	–	0.177	–	–
S. pneumoniae D39V [6], partner 1.2 µg/mL	–	–	0.752	–	0.664	0.148
S. pneumoniae D39V [6], partner 2.4 µg/mL	–	–	0.754	–	0.661	0.261
S. pneumoniae D39V [6], partner 4.8 µg/mL	–	–	0.793	–	0.705	0.237

fitness, S. pneumoniae D39V [6], one replicate
Details	first compound 0.2 µg/mL	first compound 0.4 µg/mL	first compound 0.8 µg/mL
partner 1.2 µg/mL	0.767	0.683	0.181
partner 2.4 µg/mL	0.734	0.683	0.273
partner 4.8 µg/mL	0.639	0.553	0

CCC[C@@H]1C[C@@H](C(=O)N[C@@H]([C@H]2O[C@H](SC)[C@H](O)[C@@H](O)[C@H]2O)[C@@H](C)O)N(C)C1 [Lincomycin] + Cc1ncc([N+](=O)[O-])n1CCO [Metronidazole]
Details	Bliss interaction score
B. subtilis 168 [2]	-0.0532
S. aureus DSM 20231 [1]	0.0836
S. aureus Newman	0.073
S. pneumoniae D39V [3]	0.138

Details	fitness
B. subtilis 168 [5], first compound 0.1 µg/mL, partner 0.625 µg/mL	0.971
B. subtilis 168 [5], first compound 0.1 µg/mL, partner 1.25 µg/mL	0.93
B. subtilis 168 [5], first compound 0.1 µg/mL, partner 2.5 µg/mL	0.887
B. subtilis 168 [5], first compound 0.2 µg/mL, partner 0.625 µg/mL	0.928
B. subtilis 168 [5], first compound 0.2 µg/mL, partner 1.25 µg/mL	0.9
B. subtilis 168 [5], first compound 0.2 µg/mL, partner 2.5 µg/mL	0.876
B. subtilis 168 [5], first compound 0.4 µg/mL, partner 0.625 µg/mL	0.991
B. subtilis 168 [5], first compound 0.4 µg/mL, partner 1.25 µg/mL	0.894
B. subtilis 168 [5], first compound 0.4 µg/mL, partner 2.5 µg/mL	0.933
S. aureus DSM 20231 [4], first compound 0.1 µg/mL, partner 0.625 µg/mL	0.884
S. aureus DSM 20231 [4], first compound 0.1 µg/mL, partner 1.25 µg/mL	0.953
S. aureus DSM 20231 [4], first compound 0.1 µg/mL, partner 2.5 µg/mL	≥ 1
S. aureus DSM 20231 [4], first compound 0.2 µg/mL, partner 0.625 µg/mL	0.812
S. aureus DSM 20231 [4], first compound 0.2 µg/mL, partner 1.25 µg/mL	0.853
S. aureus DSM 20231 [4], first compound 0.2 µg/mL, partner 2.5 µg/mL	0.866
S. pneumoniae D39V [6], first compound 0.2 µg/mL, partner 1.073 µg/mL	0.752
S. pneumoniae D39V [6], first compound 0.2 µg/mL, partner 2.145 µg/mL	0.681
S. pneumoniae D39V [6], first compound 0.2 µg/mL, partner 4.29 µg/mL	0.659
S. pneumoniae D39V [6], first compound 0.215 µg/mL, partner 1.25 µg/mL	0.874
S. pneumoniae D39V [6], first compound 0.215 µg/mL, partner 2.5 µg/mL	0.87
S. pneumoniae D39V [6], first compound 0.215 µg/mL, partner 5 µg/mL	0.844
S. pneumoniae D39V [6], first compound 0.4 µg/mL, partner 1.073 µg/mL	0.68
S. pneumoniae D39V [6], first compound 0.4 µg/mL, partner 2.145 µg/mL	0.654
S. pneumoniae D39V [6], first compound 0.4 µg/mL, partner 4.29 µg/mL	0.647
S. pneumoniae D39V [6], first compound 0.43 µg/mL, partner 1.25 µg/mL	0.765
S. pneumoniae D39V [6], first compound 0.43 µg/mL, partner 2.5 µg/mL	0.761
S. pneumoniae D39V [6], first compound 0.43 µg/mL, partner 5 µg/mL	0.738
S. pneumoniae D39V [6], first compound 0.8 µg/mL, partner 1.073 µg/mL	0.502
S. pneumoniae D39V [6], first compound 0.8 µg/mL, partner 2.145 µg/mL	0.435
S. pneumoniae D39V [6], first compound 0.8 µg/mL, partner 4.29 µg/mL	0.428
S. pneumoniae D39V [6], first compound 0.86 µg/mL, partner 1.25 µg/mL	0.579
S. pneumoniae D39V [6], first compound 0.86 µg/mL, partner 2.5 µg/mL	0.578
S. pneumoniae D39V [6], first compound 0.86 µg/mL, partner 5 µg/mL	0.557

CCC[C@@H]1C[C@@H](C(=O)N[C@@H]([C@H]2O[C@H](SC)[C@H](O)[C@@H](O)[C@H]2O)[C@@H](C)O)N(C)C1 [Lincomycin] + Cc1cc(NS(=O)(=O)c2ccc(N)cc2)no1 [Sulfamethoxazol]
Details	Bliss interaction score
B. subtilis 168 [2]	-0.0615
S. aureus DSM 20231 [1]	-0.0797
S. aureus Newman	0.0671
S. pneumoniae D39V [3]	-0.128

fitness
Details	first compound 0.1 µg/mL	first compound 0.2 µg/mL	first compound 0.215 µg/mL	first compound 0.4 µg/mL	first compound 0.43 µg/mL	first compound 0.86 µg/mL
B. subtilis 168 [5], partner 1 µg/mL	0.831	0.862	–	0.891	–	–
B. subtilis 168 [5], partner 2 µg/mL	0.872	0.874	–	0.841	–	–
B. subtilis 168 [5], partner 4 µg/mL	0.893	0.938	–	0.895	–	–
S. aureus DSM 20231 [4], partner 1 µg/mL	0.82	0.616	–	0.343	–	–
S. aureus DSM 20231 [4], partner 2 µg/mL	0.815	0.687	–	0.37	–	–
S. aureus DSM 20231 [4], partner 4 µg/mL	0.828	0.697	–	0.304	–	–
S. pneumoniae D39V [6], partner 1 µg/mL	–	–	0.746	–	0.658	0.252
S. pneumoniae D39V [6], partner 2 µg/mL	–	–	0.762	–	0.676	0.214
S. pneumoniae D39V [6], partner 4 µg/mL	–	–	0.786	–	0.691	0.265

fitness, one replicate
Details	first compound 0.2 µg/mL	first compound 0.4 µg/mL	first compound 0.8 µg/mL	first compound 1.6 µg/mL
B. subtilis 168 [5], partner 0.5 µg/mL	–	0.903	0.806	0.862
B. subtilis 168 [5], partner 1 µg/mL	–	–	0.76	0.698
B. subtilis 168 [5], partner 2 µg/mL	–	–	0.795	0.788
S. pneumoniae D39V [6], partner 1 µg/mL	0.731	0.674	0.323	–
S. pneumoniae D39V [6], partner 2 µg/mL	0.761	0.688	0.346	–
S. pneumoniae D39V [6], partner 4 µg/mL	0.724	0.621	0.308	–

COc1cc(Cc2cnc(N)nc2N)cc(OC)c1OC [Trimethoprim] + CC1=C\[C@@H](O)CC(=O)Cc2nc(co2)C(=O)N2CCC=C2C(=O)O[C@H](C(C)C)[C@H](C)/C=C/C(=O)NC\C=C\1 [Virginiamycin M1]
Details	Bliss interaction score
B. subtilis 168 [2]	0.0852
S. aureus DSM 20231 [1]	-0.0966
S. aureus Newman	0.0354
S. pneumoniae D39V [3]	0.0652

fitness, one replicate
Details	partner 0.0625 µg/mL	partner 0.125 µg/mL	partner 0.25 µg/mL	partner 0.5 µg/mL	partner 1 µg/mL
B. subtilis 168 [5], first compound 0.1 µg/mL	0.85	0.855	0.991	–	–
B. subtilis 168 [5], first compound 0.125 µg/mL	0.738	0.722	0.71	–	–
B. subtilis 168 [5], first compound 0.2 µg/mL	0.755	0.808	0.865	–	–
B. subtilis 168 [5], first compound 0.4 µg/mL	0.57	0.483	0.576	–	–
B. subtilis 168 [5], first compound 1 µg/mL	0.509	0.267	0.282	–	–
B. subtilis 168 [5], first compound 2 µg/mL	0.408	0.285	0.377	–	–
S. aureus DSM 20231 [4], first compound 0.125 µg/mL	0.597	0.715	–	0.7	0.541
S. aureus DSM 20231 [4], first compound 0.25 µg/mL	–	–	–	0.573	0.626
S. aureus DSM 20231 [4], first compound 0.5 µg/mL	–	–	–	0.155	0.204

fitness
Details	first compound 0.125 µg/mL	first compound 0.25 µg/mL	first compound 0.5 µg/mL	first compound 1 µg/mL
B. subtilis 168 [5], partner 0.0625 µg/mL	–	–	0.585	–
B. subtilis 168 [5], partner 0.125 µg/mL	–	0.704	0.471	–
B. subtilis 168 [5], partner 0.25 µg/mL	–	–	0.557	–
S. aureus DSM 20231 [4], partner 0.0625 µg/mL	–	0.576	0.0684	0.0383
S. aureus DSM 20231 [4], partner 0.125 µg/mL	–	0.584	0.0768	0.0445
S. aureus DSM 20231 [4], partner 0.25 µg/mL	0.682	0.618	0.119	0.0595
